Experiment: gradient 5% acetonitrile 3 min, to 50% in 2 min, to 85% in 15 min, held 3 min, 100 µL/min
Conditions: column: Zorbax Extend-C18 2.1 x 50 mm; eluents: water / acetonitrile, 0.1% formic acid
Method in brief: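 The system's dead and dwell volumes were 40 μL and 900 μL, with a Zorbax Extend-C18 column (2.1 × 50 mm, 1.8 μm) run at 100 μL/min in water and acetonitrile containing 0.1% formic acid each. Pure standards were analyzed in mixtures of ~100 molecules by HPLC–quadrupole time-of-flight mass spectrometry in positive and negative ionization mode. Retention time was assigned from computationally picked, manually inspected adduct peaks.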

Row | SMILES | RP-LC retention time [s]
1 | O=C(CCn1nnc2cc(-c3noc(/C=C/c4ccccc4)n3)ccc21)N1CCCC1 | 954
2 | Cc1cc(=O)n(CC(=O)Nc2cc(Cl)ccc2C)c(N2CCOCC2)n1 | 736
3 | COc1ccc(CC(=O)NC(C(=O)Nc2nc3ccccc3[nH]2)C(C)C)c(Cl)c1 (stereo not given) | 744
4 | O=C(Nc1ccccc1F)C1CCN(S(=O)(=O)c2cc(C(=O)N3CCCCCC3)cs2)CC1 | 916
5 | CCCn1c(=O)sc2cc(S(=O)(=O)N3CCC(C(=O)N4CCCCCC4)CC3)ccc21 | 937
6 | CC(CCc1ccccc1)NC(=O)c1ccc2c(c1)CCCN2S(C)(=O)=O (stereo not given) | 935
7 | Cc1cc(Cl)cc2sc(NCC3CCCO3)nc12 (stereo not given) | 958
8 | CC(C)OCCCNC(=O)c1ccc2cnn(Cc3ccc(F)cc3)c2c1 | 656
9 | CCc1nnc(-c2cc(NC(=O)C3CCN(C(C)=O)CC3)c(C)s2)o1 | 697
10 | CC1CCN(S(=O)(=O)c2cc(-c3nnc(C4CC4)o3)co2)CC1 | 945
11 | Cc1nc(CC(=O)Nc2nc(-c3ccccc3)c(C)s2)cs1 | 894
12 | CC(C)(C)c1csc(-c2csc(S(=O)(=O)Nc3ccccc3F)c2)n1 | 1120
13 | COCCc1noc(C2Cc3ccccc3N2C(=O)Nc2cc(OC)cc(OC)c2)n1 (stereo not given) | 929
14 | O=C(c1ccc(Cl)s1)N1CCCn2nc(-c3ccncc3)cc2C1 | 623
15 | CC1CCCN(c2nn(CC(=O)Nc3ccccc3F)c(=O)c3ccccc23)C1 (stereo not given) | 1140
16 | Cc1ncc([N+](=O)[O-])n1CC(O)CCl (stereo not given) | 677
17 | COc1ccc(-c2nc3cnccn3c2Nc2ccc3c(c2)OCO3)cc1OC | 672
18 | CN(C)c1ccc(CNC(=O)CCc2c(-c3ccc(Br)cc3)nc3ccccn23)cc1 | 599
19 | CCOC(=O)C1CCN(C(=O)c2cc(=O)c(OCc3ccc(F)cc3)cn2C)CC1 | 750
20 | CCCN1C(=O)c2cc(S(=O)(=O)Nc3ccc(F)c(F)c3)ccc2Oc2cccnc21 | 1100
21 | CC1CN=C2C=C(N3CCN(C(=O)NCCc4ccccc4)CC3)N=CN21 (stereo not given) | 620
22 | CCCCN1CCN(c2ncccc2-c2nnc(-c3ccc(Cl)cc3)o2)CC1 | 743

Row | SMILES | RP-LC retention time [s]
23 | CCN1C=C(C(=O)OCc2ccccc2F)C(C)=NS1(=O)=O | 895
24 | CCn1cc(-c2nc(C)c(C(=O)Nc3ccc(F)cc3F)s2)c2cccnc21 | 1010
25 | Cc1cccc(C)c1NC(=O)C1CCN(S(=O)(=O)c2ccc3c(c2)NC(=O)CO3)CC1 | 813
26 | O=c1c2ccccc2c(-c2nc(-c3cccnc3)no2)cn1-c1ccc(F)cc1 | 1050
27 | Cc1ccc(-c2csc(NC(=O)COc3ccccc3C(C)(C)C)n2)cc1 | 1380
28 | O=C(CCc1nnc2ccc(N3CCC4(CC3)OCCO4)nn12)N1CCN(c2ccccn2)CC1 | 581
29 | COc1ccc(-c2noc(C3CC(=O)N(c4ccccc4)C3)n2)cc1OC (stereo not given) | 964
30 | COc1ccc(C2=NC3(CCN(C(C)C)CC3)NC(c3cccc(OC)c3O)C2)cc1OC (stereo not given) | 575
31 | CCOCc1nc(C2CCCN2C(=O)c2ccsc2)no1 (stereo not given) | 724
32 | COCc1nc2nccc(-c3ccccc3)n2n1 | 672
33 | Cc1cc(F)ccc1NS(=O)(=O)c1ccc2c(c1)C(=O)N(C)c1ncccc1O2 | 924
34 | CCC(C(=O)Nc1ccc(Cl)cc1)n1cnc2nc3c(cc2c1=O)CCCC3 (stereo not given) | 878
35 | Cc1nn(CC(=O)N(C)Cc2ccccc2)c(=O)c2nc(-c3ccccc3)sc12 | 942
36 | O=C(Nc1cc(-c2ccccn2)no1)c1ccc(F)cc1 | 795
37 | O=C(c1ccc2c(c1)N(Cc1ccc(F)cc1)C(=O)CO2)N1CCN(c2ccccn2)CC1 | 639
38 | CNC(=O)c1ccc(-c2nc3cc(NS(=O)(=O)c4ccc(F)cc4F)ccc3n2C)cc1 | 645
39 | Cc1ccc(NC(=O)CN2C(=O)CCCc3cc(S(=O)(=O)N4CCCC4)ccc32)c(Cl)c1 | 912
40 | O=C(CCc1nnc2c3cc(-c4ccc(F)cc4)nn3ccn12)NCCN1CCCC1 | 605
41 | O=C(c1ccc(Br)cc1)N1CCN(c2cc(-c3ccc(Cl)cc3)[nH]n2)CC1 | 945
42 | CN(C)C(=O)c1cc2c(s1)CCC(C(=O)Nc1ccc3c(c1)OCO3)C2 (stereo not given) | 698
43 | CC(C)c1cccc2sc(NC(=O)C3CCCN(S(C)(=O)=O)C3)nc12 (stereo not given) | 965
44 | Cc1cc(C)cc(N2CCCn3c2nc2c3c(=O)n(C)c(=O)n2C)c1 | 841

Row | SMILES | RP-LC retention time [s]
45 | CC(=O)Nc1ccc(-n2cnc(C(=O)N3CCN(c4ccc(Cl)cc4)CC3)c2)nc1 | 751
46 | CCC(C(=O)NCCc1c[nH]c2ccc(Cl)cc12)n1c2ccccc2c2cnn(C)c(=O)c21 (stereo not given) | 986
47 | Cn1nc(-c2nnc(-c3ccccc3)o2)c2c1CCN(S(=O)(=O)c1ccc(F)cc1F)C2 | 955
48 | COc1cccc(-n2c(=O)c3sccc3n(Cc3nc(-c4ccc(OC(C)C)cc4)no3)c2=O)c1 | 1080
49 | COc1ccc(S(=O)(=O)Nc2ccc(C)n(CC(=O)O)c2=O)cc1 | 678
50 | CCOC(=O)c1ccc(NC(=O)CN2CC(c3nc(-c4cccc(Cl)c4)no3)C2)cc1 | 650
51 | Cc1noc(C)c1CC(=O)N1CCC2(CC1)N(CC1CC1)C(=O)CS2=O (stereo not given) | 613
52 | COc1ccc(-c2noc(C3CCCN3C(=O)c3ccc(C)c(F)c3)n2)cc1 (stereo not given) | 1040
53 | CC(C)NC(=O)CN1C(=O)C2CCCCN2c2ccc(S(=O)(=O)N3CCCC3)cc21 (stereo not given) | 810
54 | COc1cccc(CNC(=O)N2CCC(CC(=O)NCc3ccccc3)CC2)c1 | 736
55 | CCn1cc(CCNC(=O)Nc2ccc(C)cc2Cl)c2cccnc21 | 812
56 | O=C(N[C@H]1C[C@@H]2C[C@H]1CN2S(=O)(=O)c1ccccc1C(F)(F)F)c1ccccc1 | 921
57 | Cc1noc(C)c1CC(=O)NC1CCc2nn(CC3CC3)c(=O)n2CC1 (stereo not given) | 625
58 | CSc1ccc(CNC(=O)C2c3ccccc3CCN2C(C)=O)cc1 (stereo not given) | 790
59 | CCN(CC)c1nc2cc(C(=O)OC)ccc2c(=O)n1-c1ccccc1 | 1110
60 | CCCn1cnc2cc(CNC(=O)c3ccc(Cl)c(Cl)c3)ccc21 | 683
61 | COc1cccc(CC(=O)N2CCC3(CC2)NC(=O)c2ccc(Cl)cc2N3)c1 | 790
62 | CCCNC(=O)C1CCCN(C(=O)c2[nH]c(C)c(C(=O)OCC)c2C)C1 (stereo not given) | 712
63 | CCOc1ccc(CNC(=O)c2c(C)sc3ccn(C)c(=O)c23)cc1 | 786
64 | Cc1noc(-c2ccnc(-n3cnc(C(=O)NC(C)C)c3)c2)n1 | 712
65 | Cc1nc2ccccc2c(=O)n1Cc1noc(-c2ccc3c(c2)OCO3)n1 | 831

Reference: the METLIN SMRT retention time set (Domingo-Almenara et al. 2019)
